Values joined by “and” are separate entries in the source; they are usually repeats but may differ in a detail not shown here. Equal values may be shown once. Where a name gives a salt, the structure may show the parent alone. Read-outs that look alike come from different tables or passages of the source.
Legend:
[1] = system: isolated male rat urinary bladder; experiment: contractile responses of isolated male rat urinary bladder to the PKC activator phorbol ester; type: cell-based
[2] = biological target: PKC from rat brain; details: cited from earlier work
[3] = system: isolated male rat urinary bladder; experiment: baseline bladder tension of isolated male rat urinary bladder strips; type: cell-based; details: for decrease in baseline bladder tension from baseline / relaxation (decrease in baseline bladder tension): 10 μM, 45 min incubation; for effect on baseline bladder tension / bladder tone: absence of agonist-evoked contractile responses
[4] = system: isolated rabbit urinary bladder smooth muscle; details: Jezior et al. 2001, cited from earlier work
[5] = biological target: protein kinase C-related protein kinase 2 (PRK2) (Homo sapiens, UniProt Q16513); details: Davies et al. 2000; cited from earlier work
[6] = system: isolated male rat urinary bladder; experiment: α,β-methylene ATP-evoked contractions of isolated male rat urinary bladder strips (organ bath); type: cell-based; details: for attenuation of α,β-methylene ATP-evoked bladder contractions: 10 μM inhibitor, 45 min, 10 μM α,β-methylene ATP
[7] = system: isolated rabbit aorta; details: Seto et al. 1991; cited from earlier work
[8] = biological target: PKC, human form (Homo sapiens, UniProt P17252); details: 20 μM HA-1077; Davies et al. 2000; cited from earlier work
[9] = system: isolated male rat urinary bladder; experiment: KCl-evoked contractions of isolated male rat urinary bladder strips (organ bath); type: cell-based
[10] = system: isolated male rat urinary bladder; experiment: NKA-evoked contractions of isolated male rat urinary bladder strips (organ bath); type: cell-based
[11] = system: isolated male rat urinary bladder; experiment: electrically-evoked contractions of isolated male rat urinary bladder strips (organ bath); type: cell-based
[12] = system: other serine/threonine protein kinases; details: Davies et al. 2000; cited from earlier work
[13] = biological target: PRK1 (protein kinase N) (Homo sapiens, UniProt Q16512); details: cited from earlier work
[14] = system: isolated rabbit pulmonary artery; details: Fu et al. 1998; cited from earlier work
[15] = biological target: ROCK II; details: Ishizaki et al. 2000; cited from earlier work
[16] = system: isolated male rat urinary bladder; experiment: carbachol-evoked contractions of isolated male rat urinary bladder strips (organ bath); type: cell-based
[17] = Y-27632 10 μM, unpublished observations
[18] = vehicle experiments, at 3×10^−7 M NKA
[19] = all frequencies (2, 4, 8, 16 Hz), Y-27632 10 μM, atropine 1 μM, α,β-methylene ATP 10 μM
[20] = Rattus norvegicus, read-out: antagonist affinity (pKb) (converted)

Sequence of protein kinase C-related protein kinase 2 (PRK2) (Q16513 whole entry, species assumed): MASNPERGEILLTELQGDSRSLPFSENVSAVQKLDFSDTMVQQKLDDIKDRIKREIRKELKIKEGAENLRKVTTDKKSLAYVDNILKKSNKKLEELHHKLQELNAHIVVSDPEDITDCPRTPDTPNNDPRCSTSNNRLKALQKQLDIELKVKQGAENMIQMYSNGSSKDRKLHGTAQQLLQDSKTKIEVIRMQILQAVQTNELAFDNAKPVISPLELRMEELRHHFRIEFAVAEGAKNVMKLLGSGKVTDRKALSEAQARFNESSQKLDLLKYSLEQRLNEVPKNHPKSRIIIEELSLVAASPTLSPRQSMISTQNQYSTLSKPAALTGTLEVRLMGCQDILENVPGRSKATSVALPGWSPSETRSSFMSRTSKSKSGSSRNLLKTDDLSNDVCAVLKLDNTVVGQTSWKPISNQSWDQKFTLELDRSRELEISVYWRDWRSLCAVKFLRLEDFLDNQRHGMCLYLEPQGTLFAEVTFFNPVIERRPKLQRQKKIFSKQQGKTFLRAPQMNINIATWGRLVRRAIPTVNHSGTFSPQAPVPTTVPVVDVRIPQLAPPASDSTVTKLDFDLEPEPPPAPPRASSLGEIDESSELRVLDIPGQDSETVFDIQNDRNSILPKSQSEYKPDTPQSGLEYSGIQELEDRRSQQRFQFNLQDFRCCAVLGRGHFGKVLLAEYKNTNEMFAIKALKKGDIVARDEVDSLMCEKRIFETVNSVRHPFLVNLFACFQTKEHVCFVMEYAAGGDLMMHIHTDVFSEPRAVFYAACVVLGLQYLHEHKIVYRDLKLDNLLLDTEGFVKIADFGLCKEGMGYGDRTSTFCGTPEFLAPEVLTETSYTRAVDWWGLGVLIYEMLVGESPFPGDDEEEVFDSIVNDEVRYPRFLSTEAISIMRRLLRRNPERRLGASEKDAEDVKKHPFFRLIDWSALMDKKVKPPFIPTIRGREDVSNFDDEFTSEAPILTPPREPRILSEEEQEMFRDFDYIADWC
Sequence of PRK1 (protein kinase N) (Q16512 whole entry, species assumed): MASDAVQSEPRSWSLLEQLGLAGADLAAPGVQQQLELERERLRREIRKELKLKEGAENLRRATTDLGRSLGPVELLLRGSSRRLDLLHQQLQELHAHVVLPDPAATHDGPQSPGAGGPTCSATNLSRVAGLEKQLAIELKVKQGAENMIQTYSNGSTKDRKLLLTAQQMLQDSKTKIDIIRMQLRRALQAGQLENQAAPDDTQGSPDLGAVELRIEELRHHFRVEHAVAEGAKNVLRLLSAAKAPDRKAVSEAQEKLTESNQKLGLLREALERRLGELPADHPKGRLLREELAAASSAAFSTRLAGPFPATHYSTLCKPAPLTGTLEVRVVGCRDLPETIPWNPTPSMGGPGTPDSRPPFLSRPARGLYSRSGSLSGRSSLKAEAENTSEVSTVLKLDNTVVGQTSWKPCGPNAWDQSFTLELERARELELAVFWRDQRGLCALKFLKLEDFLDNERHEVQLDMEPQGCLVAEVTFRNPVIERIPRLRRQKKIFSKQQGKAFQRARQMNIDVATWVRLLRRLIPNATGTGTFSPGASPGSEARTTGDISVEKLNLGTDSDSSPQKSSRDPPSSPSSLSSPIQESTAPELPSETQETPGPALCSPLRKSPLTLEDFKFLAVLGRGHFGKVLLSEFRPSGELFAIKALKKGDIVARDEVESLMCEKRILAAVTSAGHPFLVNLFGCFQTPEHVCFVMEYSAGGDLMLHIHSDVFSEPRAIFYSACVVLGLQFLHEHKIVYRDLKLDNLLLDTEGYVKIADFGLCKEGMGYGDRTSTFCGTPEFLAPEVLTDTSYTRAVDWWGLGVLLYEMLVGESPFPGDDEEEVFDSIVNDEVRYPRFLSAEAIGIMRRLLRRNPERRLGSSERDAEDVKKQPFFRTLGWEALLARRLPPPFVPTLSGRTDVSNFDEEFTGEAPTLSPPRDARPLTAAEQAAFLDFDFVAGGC

Compound: CN(C)CCCn1cc(C2=C(c3c[nH]c4ccccc34)C(=O)NC2=O)c2ccccc21 [GF109203X]
- effect on contractile responses to the PKC activator phorbol ester [1]: inhibited

Compound: O=S(=O)(c1cccc2cnccc12)N1CCCNCC1 [HA-1077, fasudil]
- Ki [2]: 9.3 µM
- decrease in baseline bladder tension from baseline [3]: 36.1±1.6%
- relaxation (decrease in baseline bladder tension) [3]: 0.30 ± 0.01 g
- effect on baseline bladder tension / bladder tone [3]: decreased bladder tone
- effect on bethanechol-evoked contractions [4]: attenuate
- effect on PRK2 [5]: inhibited
- attenuation of α,β-methylene ATP-evoked bladder contractions [6]: 22.1±5.7% and 22±6%
- effect on contractile responses to the PKC activator phorbol ester [1, 17]: no inhibitory effects
- effect on PG-evoked contractions [7]: inhibits
- inhibitory effect on the human form of PKC [8]: no significant inhibitory effects

Compound: [Cl-].[K+] [KCl, potassium chloride]
- maximal response to KCl [9]: 8.7 ± 0.5 g
- EC50 ([9]; read-out: KCl EC50 in the absence of antagonist): 31000 ± 4300 µM

Compound: CSCC[C@H](NC(=O)[C@H](CC(C)C)NC(=O)CNC(=O)[C@@H](NC(=O)[C@H](Cc1ccccc1)NC(=O)[C@H](CO)NC(=O)[C@H](CC(=O)O)NC(=O)[C@@H](NC(=O)[C@H](CCCCN)NC(=O)[C@@H](N)Cc1c[nH]cn1)[C@@H](C)O)C(C)C)C(N)=O [NKA, Neurokinin A]
- EC50 ([10]; read-out: NKA EC50 in the presence of Y-27632, 10 μM Y-27632): 0.0324 µM
- maximal response to NKA [10, 18]: 4.2 ± 0.4 g
- maximal response to NKA as % of the response to 100 mM KCl [10, 18]: 136.2±24.8%

Compound: NC1=N[C@H](O)[C@H]2[C@H]3O[C@]4(O)O[C@@H]([C@@H](O)[C@@]2(N1)[C@@H]4O)[C@]3(O)CO [TTX, tetrodotoxin]
- effect on frequency-response curves to electrical stimulation [11]: abolished

Compound: C[C@@H](N)[C@H]1CC[C@H](C(=O)Nc2ccncc2)CC1 [Y-27632, (+)-(R)-trans-4-(1-amino-ethyl)-N-(4-pyridyl) cyclohexanecarboxamide dihydrochloride monohydrate]
- effect on AUC of electrically-evoked bladder contractions [11, 19]: significantly attenuated
- effect on amplitude of electrically-evoked bladder contractions [11, 19]: significantly attenuated
- effect on a large number of other serine/threonine protein kinases [12]: minimal effect
- decrease in baseline bladder tension from baseline [3]: 47.0±2.5%
- relaxation (decrease in baseline bladder tension) [3]: 0.40 ± 0.05 g
- effect on baseline bladder tension / bladder tone [3]: decreased bladder tone
- effect on bethanechol-evoked contractions ([4]; dihydrochloride monohydrate): attenuates
- Ki [13]: 3.1 µM
- effect on contractile response to KCl ([9]; 10 μM Y-27632, KCl 10-100 mM, dihydrochloride monohydrate): no measureable effect
- effect on AA-evoked contractile responses [14]: attenuated
- effect on PRK2 [5]: inhibited
- Ki [15]: 0.3 µM
- inhibition of carbachol-evoked contractions ([16]; 10 μM Y-27632, 45 min pretreatment, at 3×10^−6 M carbachol, dihydrochloride monohydrate): 58±11%
- effect on carbachol-evoked contractions ([16]; 10 μM Y-27632, 10^−5-10^−4 carbachol): this inhibition was not significant
- effect on carbachol-evoked contractions ([16]; 10 μM Y-27632, 10^−9-3×10^−6 M carbachol): significantly attenuated
- inhibition at 10 µM ([16]; Rattus norvegicus, 10 μM Y-27632, 45 min pretreatment, at 3×10^−6 M carbachol): 58.1 ± 10.5%
- Kb [16, 20]: 2.14 µM
- degree of attenuation of G protein-coupled receptor contractile responses (carbachol and NKA) ([16]; Y-27632 10 μM, carbachol and NKA responses together): approximately 50%
- effect on carbachol-evoked contractions ([16]; pretreatment with 1 and 3 μM Y-27632): no effect
- effect on NKA-induced contractions ([10]; 10 μM Y-27632, all concentrations of agonist): significantly attenuated
- attenuation of NKA-evoked bladder contractions ([10]; 10 μM Y-27632, at 10^−6 M): 69±13%
- Kb [10, 20]: 2.51 µM
- inhibition at 10 µM ([10]; Rattus norvegicus, read-out: inhibition of NKA-induced contractions): 68.6 ± 12.7%
- attenuation of α,β-methylene ATP-evoked bladder contractions ([6]; dihydrochloride monohydrate): 30.0±7.2% and 30±7% and ~30%
- effect on contractile responses to the PKC activator phorbol ester [1, 17]: no effect

Compound: C[N+](C)(C)CCOC(N)=O.[Cl-] [carbachol, carbamylcholine chloride]
- EC50 ([16]; Rattus norvegicus, read-out: carbachol EC50 in the presence of Y-27632): 1.03 ± 0.336 µM
- Emax at 10 µM ([16]; Rattus norvegicus, vehicle experiments, at 10^−5 M carbachol, read-out: maximal response to carbachol as % of the response to 100 mM KCl): 105 ± 28.2%
- EC50 ([16]; Rattus norvegicus, vehicle experiments, read-out: carbachol EC50 in the absence of antagonist): 0.183 ± 0.0689 µM
- maximal response to carbachol ([16]; vehicle experiments, at 10^−5 M carbachol): 5.3 ± 0.9 g

Compound: Nc1ncnc2c1ncn2[C@@H]1O[C@H](COP(=O)(O)CP(=O)(O)OP(=O)(O)O)[C@@H](O)[C@H]1O [α,β-methylene ATP]
- mean amplitude of contractile responses evoked by α,β-methylene ATP [6]: 3.9 ± 0.5 g

From patent US20050159333A1, “Methods of modulating smooth muscle contractility” (priority 2002, published 2005)
